Where “and” joins values, the source holds several entries; their conditions need not be identical. Equal values may be shown once.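 The compound was tested at five concentrations on cells cultured in 96-well plates, with a 48-hour exposure period. Abbreviation: GI50, concentration required for 50% inhibition of growth. TGI: concentration producing complete growth inhibition.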

Common to all, as to experiment: growth of human tumour cells (NCI), 48 h
For experiment [1], the system named is CAKI-1 renal.
The subject of experiment [2] is SR leukemia.
The test system of experiment [3] is RPMI-8226 leukemia.
Experiment [4] relates to OVCAR-8 ovarian.
In experiment [5] the test system is SNB-75 CNS.
The test system of experiment [6] is SF-268 CNS.
The subject of experiment [7] is SW-620 colon.
The test system of experiment [8] is SF-539 CNS.
Experiment [9] has as its system NCI-H522 lung.
The test system of experiment [10] is BT-549 breast.

Take `Cn1cnc([N+](=O)[O-])c1SC1=NCCS1`: the TGI in [1], in experiment [2], in [3], in experiment [4], in experiment [5] and in experiment [6] was greater than 100 µM in each case. Also, the TGI in experiment [7] was greater than 100 µM; in experiment [8], greater than 100 µM; in [9] it was 41.7 µM.

For the compound `O=C(CC/C(CC(=O)c1ccc(Cl)cc1)=N/O)Nc1ccc(Cl)c(Cl)c1`, the TGI in [1], in experiment [2], in experiment [3], in [4], in experiment [5] and in experiment [6] was greater than 100 µM throughout. Also, the TGI in experiment [7], in experiment [8] and in experiment [9] was greater than 100 µM in each case.

Take `Cn1cnc([N+](=O)[O-])c1Sc1nc2cccnc2s1`: the TGI in experiment [1] is 21 µM; in experiment [2] it was 37.1 µM; in [3], 60.4 µM; in [4] it was 90.1 µM; in experiment [5], 65.8 µM; in experiment [6] it was 69.1 µM. Also, the TGI in experiment [7] was found to be 26.6 µM; in [8], 42 µM.

Regarding `COCOCc1cc(OCc2ccccc2)c(OC)cc1Br`, the TGI in experiment [1], in experiment [2], in experiment [3], in experiment [4], in experiment [5] and in experiment [6] was greater than 100 µM throughout. Also, the TGI in experiment [7] and in experiment [8] was greater than 100 µM each time.

On to `COc1ccc2c(c1)C(=O)/C(=C/c1ccc([N+](=O)[O-])s1)O2`, for which the GI50 in experiment [1] is 2.19 µM; in experiment [10] it was 0.246 µM; in experiment [3] it was 0.26 µM; in [4], 0.362 µM; in experiment [5] it was 0.627 µM; in experiment [6], 0.268 µM. Moreover, the GI50 is 0.211 µM in [7], 0.352 µM in [8] and 0.195 µM in experiment [9]. Further, the TGI in experiment [1] was greater than 100 µM; in experiment [10], 0.617 µM; in [3], 0.843 µM; in [4] it was greater than 100 µM; in experiment [5] it was 2.47 µM; in experiment [6] it was 0.66 µM. Besides, the TGI in experiment [7] amounted to 0.507 µM; in experiment [8], 1.41 µM; in experiment [9], 0.395 µM.

On to `Cc1ccc(NC(=O)COC(=O)c2cccc3c(=O)c4ccccc4[nH]c23)cc1`, for which the TGI in experiment [1] was greater than 100 µM; in experiment [2] it was 65.1 µM; in [3], greater than 100 µM; in [4], greater than 100 µM; in experiment [5], 94.9 µM; in [6] it was greater than 100 µM. Besides, the TGI in experiment [7] was greater than 100 µM; in experiment [8], greater than 100 µM; in experiment [9], 59.9 µM.

`CC1C=CC(C)C2(O)C(=O)NC(O)C12` (centres undefined): the TGI in experiment [1], in experiment [2], in experiment [3], in experiment [4], in [5] and in experiment [6] was greater than 100 µM each time. Further, the TGI in experiment [7], in experiment [8] and in experiment [9] was greater than 100 µM throughout.

In the case of `Cc1ccc([N+](=O)[O-])cc1NC(=O)C(=O)Cc1cc(=O)oc2cc(O)ccc12`, the TGI in experiment [1] was greater than 100 µM; in experiment [2], 94.2 µM; in [3] it was 75.3 µM; in experiment [4], greater than 100 µM; in [5], greater than 100 µM; in experiment [6], greater than 100 µM. In addition, the TGI in experiment [8] and in [9] was greater than 100 µM in each case.

Consider `CO/N=C(\COc1ccc2c(c1)oc(=O)c1cc(OC)ccc12)c1cccc(OC)c1`, for which the GI50 in [1], in experiment [10], in experiment [3], in experiment [4], in [5] and in [6] was greater than 100 µM throughout. The GI50 in [7], in [8] and in experiment [9] was greater than 100 µM throughout. The TGI in experiment [1], in [10], in experiment [3], in experiment [4], in experiment [5] and in [6] was greater than 100 µM each time. For the same compound, the TGI in experiment [7], in experiment [8] and in experiment [9] was greater than 100 µM in each case.

Take `Cc1ccc(/C=C/C(=O)c2ccc(N)cc2)c(C)c1`: the GI50 in [1] is 1.72 µM; in experiment [10], 1.68 µM; in [3], 2.12 µM; in experiment [5], 2.01 µM; in experiment [6], 1.88 µM; in [7], 1.92 µM. Also, the figures for the GI50 in experiment [8] and in experiment [9] were 2.39 µM and 0.379 µM, respectively. Further, the TGI in [1] stood at 3.18 µM; in [10] it was 3.4 µM; in [3], 4.99 µM; in experiment [5], 7.45 µM; in experiment [6], 3.7 µM; in [7] it was 3.88 µM. The TGI in experiment [8] was 5.45 µM; in experiment [9], 1.67 µM.

As for `CO/N=C(\COc1ccc2c(c1)oc(=O)c1cc(OC)ccc12)c1ccc(F)cc1`, the GI50 is 19.1 µM in experiment [1]; 23.4 µM in [10]; 32.8 µM in experiment [3]; 26.7 µM in experiment [4]; 13.4 µM in experiment [5]; 29.9 µM in experiment [6]. Also, the results for the GI50 in experiment [7], in experiment [8] and in experiment [9] were 34.8 µM, 23.5 µM and 13 µM, respectively. The TGI in experiment [1] was 55 µM; in experiment [10] it was 55.2 µM; in experiment [3], greater than 100 µM; in experiment [4], greater than 100 µM; in experiment [5] it was 27.1 µM; in experiment [6], greater than 100 µM. Also, the TGI is greater than 100 µM in experiment [7], 63 µM in experiment [8] and 32.5 µM in [9].

Regarding `COc1ccc(NC(=O)COC(=O)c2cccc3c(=O)c4ccccc4[nH]c23)cc1`, the TGI in [1] amounted to 67.9 µM; in [2], 28.9 µM; in [4], 55.9 µM; in [5], 41.2 µM; in experiment [6], 55.2 µM; in experiment [7], 60.1 µM. The figures for the TGI in [8] and in experiment [9] were 37.1 µM and 38.5 µM, respectively.

Turning to `O=C1Cc2ccccc2N1c1c(Cl)cccc1Cl`, the TGI was greater than 100 µM in experiment [1]; 90.2 µM in [2]; 62.7 µM in experiment [3]; greater than 100 µM in [4]; greater than 100 µM in experiment [5]; greater than 100 µM in [6]. Besides, the TGI in [7], in experiment [8] and in experiment [9] was greater than 100 µM throughout.

Consider `CCCCCCCCCCCCCC(=O)OC(/C=C/C(C)C)C(O)C(O)C(OC)C(=O)NC1CCCCNC1=O` (centres undefined), for which the TGI is 3.81 µM in experiment [1]; 2.04 µM and 9.05 µM in [2]; 15.9 µM in experiment [3]; 5.08 µM in experiment [4]; 9.46 µM in experiment [5]; 3.63 µM in experiment [6]. Moreover, the TGI in experiment [7] worked out at 4.46 µM; in experiment [8], 5.22 µM; in [9] it was 4.23 µM. Also, the GI50 in experiment [2] was 0.381 µM; in experiment [4], 2.77 µM; in experiment [5], 4.63 µM; in experiment [7] it was 4.4 µM; in [8], 2.29 µM; in experiment [9], 5.27 µM.

Take `COc1cc2c3c(n(CCCCNC(=O)OCC4c5ccccc5-c5ccccc54)c(=O)c2cc1OC)-c1cc2c(cc1C3=O)OCO2`: the GI50 was 5.3 µM in [1]; 79.1 µM in [10]; 35 µM in [4]; 28.9 µM in experiment [5]; 6.7 µM in experiment [6]; 7.75 µM in [7]. Moreover, the GI50 in experiment [8] is 6.42 µM; in experiment [9], 11.1 µM. In addition, the TGI in experiment [1], in [10], in [4], in experiment [5], in experiment [6] and in experiment [7] was greater than 100 µM in each case. Further, the TGI was 37.6 µM in experiment [8] and greater than 100 µM in experiment [9].

For `CCN(CC)CCC(=O)N1CCc2c([nH]c3ccccc23)C1c1cccnc1` (centres undefined), the TGI in experiment [1], in [2], in [3], in experiment [4], in [5] and in [6] was greater than 100 µM each time. In addition, the TGI in [7], in [8] and in experiment [9] was greater than 100 µM in each case.

In the case of `N#CCC12CC=CCC1=C(O)C(=O)c1ccc(O)cc12` (centres undefined), the TGI in experiment [1], in [2], in [3], in experiment [4], in experiment [5] and in [6] was greater than 100 µM each time. The TGI in experiment [7], in [8] and in experiment [9] was greater than 100 µM throughout.

Take `COc1ccc(CC2NCCc3cc(OC)c(OC)cc32)cc1` (centres undefined): the TGI in [1], in experiment [2], in experiment [3], in experiment [4], in experiment [5] and in experiment [6] was greater than 100 µM in each case. Besides, the TGI in experiment [7], in experiment [8] and in experiment [9] was greater than 100 µM in each case.

Take `CC1CC(=O)C(CC(=O)O)C1C(C(=O)C(=O)Nc1c(C#N)cccc1[N+](=O)[O-])[N+](=O)[O-]` (centres undefined): the TGI in experiment [1], in experiment [2], in experiment [3], in [4], in experiment [5] and in experiment [6] was greater than 100 µM each time. Moreover, the TGI in experiment [7] and in [8] was greater than 100 µM each time.

For the compound `Oc1ccc2c3c1OC1C(=NN=C4CCC5(O)C6Cc7ccc(O)c8c7C5(CCN6CC5CC5)C4O8)CCC4(O)C(C2)N(CC2CC2)CCC314` (centres undefined), the TGI in experiment [1] was greater than 100 µM; in experiment [2] it was 80.4 µM; in experiment [3], 88.7 µM; in [4], 84 µM; in experiment [5] it was greater than 71.8 µM; in [6], greater than 83.3 µM. Further, the results for the TGI in experiment [7], in experiment [8] and in [9] were 41.6 µM, greater than 55.5 µM and 57.4 µM, respectively.

With `O=C1CCCC(=O)C1=C(O)CCCCCCCCCCc1ccccc1`, the TGI in [1] is 38 µM; in experiment [2], 71.9 µM; in experiment [3] it was greater than 100 µM; in experiment [4], greater than 100 µM; in experiment [5], 95.4 µM; in experiment [6], greater than 100 µM. For the same compound, the TGI in experiment [7] was greater than 100 µM; in experiment [8], greater than 100 µM; in experiment [9] it was 82.2 µM.

With `C=CCC12CC(=O)C=C1CCC1(C2)OCCO1` (centres undefined), the TGI in [1], in experiment [2], in experiment [3], in [5], in experiment [6] and in [7] was greater than 100 µM in each case. In addition, the TGI in experiment [8] and in experiment [9] was greater than 100 µM throughout.

`Cc1nc(N)sc1N=Nc1cc(Cl)c([N+](=O)[O-])cc1Cl`: the TGI in [1] was 68.5 µM; in experiment [2] it was 26.5 µM; in experiment [3], 21.8 µM; in experiment [4], 36.8 µM; in [5] it was 30.5 µM; in experiment [6], 88.5 µM. Moreover, the TGI in experiment [7] was found to be 35.8 µM; in experiment [8], 41.8 µM; in experiment [9] it was 35.5 µM.

On to `COc1ccc(/C(=N\O)c2cc(OC)c(OC)c(OC)c2)c(OC)c1N`, for which the GI50 in experiment [1] was 4.38 µM; in experiment [10] it was 3.86 µM; in experiment [3], 4.44 µM; in [4] it was 5.52 µM; in experiment [6] it was 6.5 µM; in [7], 3.97 µM. Besides, the GI50 in experiment [8] was 2.89 µM; in experiment [9], 3.3 µM. The TGI in experiment [1], in [10], in [3], in [4], in [6] and in experiment [7] was greater than 100 µM each time. For the same compound, the TGI in experiment [8] and in [9] was greater than 100 µM each time.

The values are drawn from PubChem BioAssay (NCI).
